Results: patent US8178077B2, “Drug development target protein and target gene, and method of screening” (Reverse Proteomics Research Institute Co., Ltd., priority 2004, dated 2012)
Counter-ions that a name gives are not always drawn.

Target: T1, FLJ39196 clone-derived protein (human neurocalcin δ) (Homo sapiens, UniProt P61601)
T1 construct: A human full-length cDNA clone was expressed as a protein with an N-terminal His tag; His tag (N); made in house; host or cells: Escherichia coli BL21star(DE3)pLysS (pDEST17 Gateway expression plasmid)
Assay: SEC/MS interaction analysis (size exclusion spin column and mass analysis) with FLJ39196 clone-derived protein
Type: binding
Text: To analyze the interactions between commonly used drugs and proteins expressed from human full-length cDNA clones while keeping both the proteins and the compounds in non-modified, non-immobilized state, size exclusion chromatography (SEC) and mass analysis were used in combination (FIGS. 1, 2). The specific procedures are shown below.
The compound-protein mixture prepared in step 1 was subjected to chromatography using an SEC column, the compound and the protein were separated by SEC, and the compound that interacted with the bound compound or protein contained in the protein fraction was analyzed using a mass analyzer.
Protein concentrations were measured using BCA Protein Assay (PIERCE), in consideration of the purity calculated by SDS-PAGE.
Mass analysis was performed using LCQ DECA XP (Thermoelectron) or Q-TOFmicro (Micromass), equipped with an ESI probe. The LC pump used was Agilent 1100 (Yokogawa Analytical Systems), and the autosampler used was HTC-PAL (CTC Analytics) equipped with a cooling stacker.
In the SEC method using 384-well spin columns, Unifilter 100 (Whatman), packed with 10 μL (dry volume) of Bio-Gel P6 (BIO-RAD) and swollen with milliQ water, was used as the SEC column. 13.3 μL of a protein-free reference standard or a 25 μM protein standard and 0.7 μL of a multiplied liquid comprising 25 μM of each pharmaceutical compound (5% DMSO aqueous solution) were mixed; 9 μL of this mixture was aliquoted into the SEC spin columns. The SEC spin column was mounted on an acetonitrile-aliquoted 384-well U-bottom plate and centrifuged; the SEC spin column filtrate, which is a protein fraction, was retrieved in 50% acetonitrile. The protein precipitate produced by the acetonitrile was removed via centrifugation and filtration for deproteinization; the resulting filtrate was concentrated by centrifugation and re-dissolved in 10 μL of 50% methanol to obtain a mass analysis sample. The mobile phase supplied to the mass analyzer was 0.1% formic acid/50% methanol solution in the positive ion mode, and 0.1% ammonia/50% methanol solution in the negative ion mode; these mobile phases were used at a flow rate of 40 μL/min. 2-μL of mass analysis samples were injected using an autosampler at 2-minute intervals; the mass spectral intensity of the compound was measured to obtain the spectral intensity of the pharmaceutical compound contained in the SEC spin column filtrate (protein fraction eluted from SEC).

[1] = protein 0 μM (protein-free reference), compound 1 μM
[2] = protein 0 μM (protein-free reference), compound 10 μM
[3] = protein 0 μM (protein-free reference), compound 100 μM
[4] = protein 0 μM (protein-free reference), compound 250 μM
[5] = protein 23.75 μM, compound 1 μM
[6] = protein 23.75 μM, compound 10 μM
[7] = protein 23.75 μM, compound 100 μM
[8] = protein 23.75 μM, compound 250 μM
[9] = protein 47.5 μM, compound 10 μM
[10] = protein 47.5 μM, compound 100 μM
[11] = protein 47.5 μM, compound 250 μM

spectral intensity of the compound in the SEC spin column filtrate (protein fraction) [1]	spectral intensity of the compound in the SEC spin column filtrate (protein fraction) [2]	spectral intensity of the compound in the SEC spin column filtrate (protein fraction) [3]	spectral intensity of the compound in the SEC spin column filtrate (protein fraction) [4]	spectral intensity of the compound in the SEC spin column filtrate (protein fraction) [5]	spectral intensity of the compound in the SEC spin column filtrate (protein fraction) [6]	spectral intensity of the compound in the SEC spin column filtrate (protein fraction) [7]	spectral intensity of the compound in the SEC spin column filtrate (protein fraction) [8]	spectral intensity of the compound in the SEC spin column filtrate (protein fraction) (protein 47.5 μM, compound 1 μM)	spectral intensity of the compound in the SEC spin column filtrate (protein fraction) [9]	spectral intensity of the compound in the SEC spin column filtrate (protein fraction) [10]	spectral intensity of the compound in the SEC spin column filtrate (protein fraction) [11]	Compound
2913965	4868887	58800844	224525009	2449690	5737072	121577640	265475649	2762592	9271060	197624997	359356100	CN1CCC(=C2c3ccccc3Sc3ccccc32)CC1 [Pimethixene]
3754698	2330594	7909682	10553153	3790373	6024709	124641622	157539770	3014448	17385466	122918120	666932700	O=C(c1ccc(OCCN2CCCCC2)cc1)c1c(-c2ccc(O)cc2)sc2cc(O)ccc12 [Raloxifene hydrochloride]
9843174	6544896	12903374	7315419	11269941	21895843	215933519	288844471	17653515	40677751	675671326	1469409087	COC(=O)[C@H]1[C@H]2C[C@@H]3c4[nH]c5cc(OC)ccc5c4CCN3C[C@H]2C[C@@H](OC(=O)/C=C/c2cc(OC)c(OC)c(OC)c2)[C@@H]1OC [Rescinnamine]
6080126	3684060	4969067	9177432	4318261	7828150	163940015	357100809	5977944	7209043	507388292	742015343	CCCCCCCCNC(C)C(O)c1ccc(SC(C)C)cc1 (stereo not drawn) [Suloctidil]
